From the PolyMetriX glass transition set
± gives the standard deviation of the reports.

Compound	glass transition temperature [°C]
*c1cccc(Oc2ccc(P(=O)(c3ccccc3)c3ccccc3)c(Oc3cccc(-n4c(=O)c5cc6c(=O)n(*)c(=O)c6cc5c4=O)c3)c2)c1 (repeat unit)	251.00
*C(=O)OCCCCCCCCOC(=O)c1ccc(N2C(=O)c3ccc(*)cc3C2=O)cc1 (repeat unit)	65.00
*Oc1c(C)cc(C(C)(C)c2cc(C)c(OC(*)=O)c(Cl)c2)cc1Cl (repeat unit)	154.00
*CCN(CCOC(=O)c1ccc(C(=O)O*)cc1)c1ccc(C=C(C#N)C#N)cc1 (repeat unit)	127.00
*CC(F)(F)C(F)(F)C(F)(F)C(F)(F)COC(=O)O* (repeat unit)	-41.00
*O[Si](*)(C)C=C (repeat unit)	-129.00
*OC(C)CCCCC(*)=O (repeat unit)	-40.00
*C[Si](*)(CCCCCC)CCCCCC (repeat unit)	-56.00
*OC(=O)c1ccc(Cc2ccc(C(*)=O)cc2)cc1 (repeat unit)	122.00
*CCCCCCOC(=O)C(CCCCCOc1ccc(/N=N/c2ccncc2)cc1)C(=O)OCCCCCCOc1ccc(-c2ccc(O*)cc2)cc1 (repeat unit)	53.60
*c1ccc(-c2ccc(-c3ccc(-n4c(=O)c5cc6c(=O)n(*)c(=O)c6c(C(F)(F)F)c5c4=O)cc3)cc2)cc1 (repeat unit)	364.00
*CC(*)C(=O)OCCCCCCCCn1c2ccccc2c2ccccc21 (repeat unit)	12.00
*CC(*)(C)C(=O)OCCN(CC)c1ccc(/N=N/c2ccc(C#N)cc2)cc1 (repeat unit)	119.00
*c1cc(C)c(-c2c(C)cc(N3C(=O)c4ccc(-c5ccc6c(c5)C(=O)N(*)C6=O)cc4C3=O)cc2C)c(C)c1 (repeat unit)	280.00
*c1ccc(-c2ccc(-c3cnc4cc(Oc5ccc6nc(*)cnc6c5)ccc4n3)cc2)cc1 (repeat unit)	390.00
*CC(COc1ccc(-c2ccc(OC)cc2)cc1)O* (repeat unit)	111.00
*CCN(*)C(=O)c1c(F)cc(F)cc1F (repeat unit)	135.00

Compound	glass transition temperature [°C]
*C(=O)c1cc2c(cc1Cl)C(=O)N(c1cccc(N3C(=O)c4cc(*)c(Cl)cc4C3=O)c1)C2=O (repeat unit)	313.00
*C1C(=O)OC(=O)C1C1C2CC(C(=O)OC(C)CC)C(C2)C1* (repeat unit)	175.00
*Oc1cccc(NC(=O)c2ccc(C(=O)Nc3ccc(*)cc3)cc2)c1 (repeat unit)	280.00
*CC(*)(C)C(=O)OCCCN(CCO)c1ccc(/N=N/c2ccc([N+](=O)[O-])cc2)cc1 (repeat unit)	131.00
*Oc1cc(C(C)(C)c2ccccc2)c(OC(=O)c2ccc(C(*)=O)cc2)cc1C(C)(C)c1ccccc1 (repeat unit)	170.00
*c1ccc(-c2nc3ccc(Oc4ccc5nc(*)c(-c6ccccc6)nc5c4)cc3nc2-c2ccccc2)cc1 (repeat unit)	304.00
*CCCCCCNC(=O)c1ccc(C(=O)N*)c(Oc2ccc(F)cc2)c1 (repeat unit)	113.00
*Oc1ccc(OC(=O)c2ccc(-c3ccc(C(*)=O)cc3)cc2-c2ccccc2)cc1C (repeat unit)	133.00
*CC(*)c1ccc(C(=O)CCN2CCOCC2)cc1 (repeat unit)	41.00
*O[Si](*)(CCC)c1ccccc1 (repeat unit)	40.60
*c1cccc(P(=O)(c2ccccc2)c2cccc(N3C(=O)c4ccc(NC(=O)OCCOc5ccc(C(C)(C)c6ccc(OCCOC(=O)Nc7ccc8c(c7)C(=O)N(*)C8=O)cc6)cc5)cc4C3=O)c2)c1 (repeat unit)	220.00
*c1cc(C(=O)O)cc(N2C(=O)CC(C3CC4C(=O)N(*)C(=O)C4c4ccccc43)C2=O)c1 (repeat unit)	360.00
*Oc1c(C)cc(-c2cc(C)c(OC(=O)CCCCCCCCC(*)=O)c(C)c2)cc1C (repeat unit)	57.00
*Oc1ccc(C(*)=O)cc1CCCCC (repeat unit)	50.00
*[Si](*)(C)CCCOCC1COC(C)(C)O1 (repeat unit)	-48.00
*O[Si](C)(C)O[Si](C)(C)O[Si](C)(C)c1ccc(Oc2ccc([Si](*)(C)C)cc2)cc1 (repeat unit)	-37.00
*CC(*)OCC(CC)CCCC (repeat unit)	-66.00

Further lines, results first:

glass transition temperature [°C]	Compound
151.00	*c1ccc2cc(OC(=O)c3cccc(C(=O)Oc4ccc5cc(-c6nc7ccccc7nc6*)ccc5c4)c3)ccc2c1 (repeat unit)
248.00	*Cc1cc2cc(C(=O)Nc3ccc(-c4ccc(NC(=O)c5cc6cc(*)c(OC(=O)COc7ccc8ccc(=O)oc8c7)cc6oc5=O)cc4)cc3)c(=O)oc2cc1OC(=O)COc1ccc2ccc(=O)oc2c1 (repeat unit)
259.00	*Oc1ccc(Oc2ccc(S(=O)(=O)c3ccc(-c4ccc(-c5ccc(S(=O)(=O)c6ccc(*)cc6)cc5)cc4)cc3)cc2)cc1 (repeat unit)
233.00	*CC(=O)Nc1ccc(Cc2ccc(NC(=O)CN3C(=O)c4ccc(C(=O)c5ccc6c(c5)C(=O)N(*)C6=O)cc4C3=O)cc2)cc1 (repeat unit)
305.00	*c1ccc2c(c1)C(=O)N(c1cccc(C(c3ccccc3)(c3cccc(N4C(=O)c5ccc(C(*)(C(F)(F)F)C(F)(F)F)cc5C4=O)c3)C(F)(F)F)c1)C2=O (repeat unit)
267.00	*c1ccc(S(=O)(=O)c2ccc(N3C(=O)c4ccc(Oc5ccc(C(C)(C)c6ccc(Oc7ccc8c(c7)C(=O)N(*)C8=O)cc6)cc5)cc4C3=O)cc2)cc1 (repeat unit)
273.00	*c1ccc(Oc2ccc(C(=O)c3ccc(-c4ccc(C(=O)c5ccc(Oc6ccc(-c7nc(-c8ccc(-c9nc(*)c(-c%10ccccc%10)[nH]9)cc8)[nH]c7-c7ccccc7)cc6)cc5)cc4)cc3)cc2)cc1 (repeat unit)
355.50 ± 19	*c1ccc2c(c1)C(=O)N(c1ccc(N3C(=O)c4ccc(C(*)(C(F)(F)F)C(F)(F)F)cc4C3=O)cc1)C2=O (repeat unit)
315.00	*C(=O)c1ccc2c(c1)C(=O)N(c1ccc(N(c3ccc(C#N)cc3)c3ccc(N4C(=O)c5ccc(*)cc5C4=O)cc3)cc1)C2=O (repeat unit)
228.00	*Oc1ccc(Oc2ccc(NC(=C(C#N)C#N)c3cccc(C(Nc4ccc(*)cc4)=C(C#N)C#N)c3)cc2)cc1 (repeat unit)
192.00	*C(=O)Nc1ccc(NC(=O)c2ccc3c(c2)C(=O)N(c2ccc(Oc4ccc(N5C(=O)c6ccc(*)cc6C5=O)cc4)cc2)C3=O)c(OCCCCCCS(=O)(=O)c2ccc(/C=C/c3ccc(N(C)C)cc3)cc2)c1 (repeat unit)
151.50	*c1ccc(Oc2ccc3ccc(Oc4ccc(N5C(=O)CC(=O)N(*)C5=S)cc4)cc3c2)cc1 (repeat unit)
217.00	*Oc1ccc(C2(c3ccc(Oc4ccc(C(=O)c5cccc(C(=O)c6ccc(*)cc6)c5)cc4)c(C)c3)c3ccccc3-c3ccccc32)cc1C (repeat unit)
290.00	*c1ccc(Oc2ccc(C(=O)c3ccc(Oc4ccc(-c5c6c(c(*)c7ccccc57)C(=O)N(c5ccc(F)cc5)C6=O)cc4)cc3)cc2)cc1 (repeat unit)
206.50 ± 0.7	*c1ccc2c(c1)C(=O)N(c1cccc(Oc3cccc(Oc4cccc(N5C(=O)c6ccc(C(*)(C(F)(F)F)C(F)(F)F)cc6C5=O)c4)c3)c1)C2=O (repeat unit)
220.00	*C(=O)Nc1ccc(Oc2cccc(Oc3ccc(NC(=O)c4ccc5c(c4)C(=O)N(c4ccc(Oc6cccc(Oc7ccc(N8C(=O)c9ccc(*)cc9C8=O)cc7)c6C#N)cc4)C5=O)cc3)c2C#N)cc1 (repeat unit)
305.00	*c1ccc(C(c2ccc(N3C(=O)c4ccc(Oc5ccc6c(c5)C(=O)N(*)C6=O)cc4C3=O)cc2)(C(F)(F)F)C(F)(F)F)cc1 (repeat unit)
254.00	*c1ccc(-c2cc(-c3ccc(-c4ccccc4)cc3)cc(-c3ccc(N4C(=O)c5ccc(NC(=O)Nc6cccc7c(NC(=O)Nc8ccc9c(c8)C(=O)N(*)C9=O)cccc67)cc5C4=O)cc3)n2)cc1 (repeat unit)
181.40	*C(CC(C)C)C(=O)Nc1ccc(Oc2ccc(NC(=O)Nc3ccc(Cc4ccc(NC(=O)Nc5ccc(Oc6ccc(NC(=O)C(CC(C)C)n7c(=O)c8cc9c(=O)n(*)c(=O)c9cc8c7=O)cc6)cc5)cc4)cc3)cc2)cc1 (repeat unit)
153.00	*c1ccc(OCCCCCCCCCCOc2ccc(N3C(=O)c4ccc(-c5ccc6c(c5)C(=O)N(*)C6=O)cc4C3=O)cc2)cc1 (repeat unit)
212.00	*c1ccc(Oc2ccc(N3C(=O)c4ccc(Oc5ccccc5Oc5ccc6c(c5)C(=O)N(*)C6=O)cc4C3=O)cc2)cc1 (repeat unit)
288.00	*c1ccc(C(=O)Nc2ccc(-c3cc(Br)ccc3NC(=O)c3ccc(S(*)(=O)=O)cc3)cc2)cc1 (repeat unit)
244.00	*c1ccc(Cc2ccc(N3C(=O)c4ccc(-c5ccc(-c6ccc(-c7ccc(-c8ccc(-c9ccc%10c(c9)C(=O)N(*)C%10=O)cc8)cc7)cc6)cc5)cc4C3=O)cc2)cc1 (repeat unit)
260.00	*c1cccc(N2C(=O)c3ccc(Oc4cccc5c(Oc6ccc7c(c6)C(=O)N(*)C7=O)cccc45)cc3C2=O)c1 (repeat unit)
275.50	*c1ccc(Oc2ccc(C(=O)c3ccc(Oc4ccc(N5C(=O)c6ccc(S(=O)(=O)c7ccc8c(c7)C(=O)N(*)C8=O)cc6C5=O)cc4)cc3)cc2)cc1 (repeat unit)
210.00	*CN1C(=O)c2ccc(C(c3ccc4c(c3)C(=O)N(Cc3nnc(-c5ccc(Oc6ccc(-c7nnc(*)o7)cc6)cc5)o3)C4=O)(C(F)(F)F)C(F)(F)F)cc2C1=O (repeat unit)
